In brackets after ≈: the same amount, converted by molar mass.
Legend:
Type in all cases: functional
Staphylococcus aureus [1] = experiment: Antibacterial activity against Staphylococcus aureus ATCC 25923 by agar dilution method
Staphylococcus aureus [2] = experiment: Antibacterial activity against Staphylococcus aureus ATCC 25923 by agar dilution method in presence of human plasma; conditions: ATCC 25923, Plasma
Staphylococcus aureus [3] = experiment: Antibacterial activity against methicillin-susceptible Staphylococcus aureus by agar dilution method
Staphylococcus aureus [4] = experiment: Antibacterial activity against methicillin-resistant Staphylococcus aureus by agar dilution method
Staphylococcus [5] = experiment: Antibacterial activity against methicillin-sensitive coagulase-negative Staphylococcus by agar dilution method
Staphylococcus [6] = experiment: Antibacterial activity against methicillin resistant coagulase-negative Staphylococcus by agar dilution method
Streptococcus pneumoniae = experiment: Antibacterial activity against Streptococcus pneumoniae by agar dilution method
Enterococcus [7] = experiment: Antibacterial activity against vancomycin-sensitive Enterococcus by agar dilution method
Enterococcus [8] = experiment: Antibacterial activity against vancomycin-resistant Enterococcus by agar dilution method
Haemophilus influenzae [9] = experiment: Antibacterial activity against Haemophilus influenzae ATCC 49247 by agar dilution method
Haemophilus influenzae [10] = experiment: Antibacterial activity against Haemophilus influenzae isolate 280 by agar dilution method
Haemophilus influenzae [11] = experiment: Antibacterial activity against Haemophilus influenzae isolate 282 by agar dilution method
Haemophilus influenzae [12] = experiment: Antibacterial activity against Haemophilus influenzae isolate 283 by agar dilution method
Haemophilus influenzae [13] = experiment: Antibacterial activity against Haemophilus influenzae isolate 285 by agar dilution method
Moraxella catarrhalis = experiment: Antibacterial activity against Moraxella catarrhalis by agar dilution method
Escherichia coli = experiment: Antibacterial activity against Escherichia coli ATCC 25922 by agar dilution method

For `Cc1cn(C[C@H]2CN(c3ccc(N4CCN(C(=O)C5CC5)CC4)c(F)c3)C(=O)O2)nn1`, the MIC (Staphylococcus aureus [1]) was 2 mg/L (≈ 4.67 µM), the MIC (Staphylococcus aureus [2]) was 16 mg/L and the MIC (Staphylococcus aureus [3]) was 2 mg/L (≈ 4.67 µM). The MIC (Staphylococcus aureus [4]) was 2 mg/L (≈ 4.67 µM), the MIC (Staphylococcus [5]) was 1 mg/L (≈ 2.33 µM) and the MIC (Staphylococcus [6]) was 1 mg/L (≈ 2.33 µM). It also gave an MIC (Streptococcus pneumoniae) of 2 mg/L (≈ 4.67 µM), an MIC (Enterococcus [7]) of 1 mg/L (≈ 2.33 µM) and an MIC (Enterococcus [8]) of 1 mg/L (≈ 2.33 µM). For the same compound, the MIC (Haemophilus influenzae [9]) was 32 mg/L (≈ 74.7 µM), the MIC (Haemophilus influenzae [10]) was 32 mg/L (≈ 74.7 µM) and the MIC (Haemophilus influenzae [11]) was 32 mg/L (≈ 74.7 µM). The MIC (Haemophilus influenzae [12]) was 32 mg/L (≈ 74.7 µM), the MIC (Haemophilus influenzae [13]) was 32 mg/L (≈ 74.7 µM) and the MIC (Moraxella catarrhalis) was 16 mg/L (≈ 37.3 µM). For the same compound, the MIC (Escherichia coli) was greater than 64 mg/L.

`Cc1cn(C[C@H]2CN(c3ccc(N4CCN(C(=O)/C=C/c5ccccc5)CC4)c(F)c3)C(=O)O2)nn1` gave an MIC (Staphylococcus aureus [1]) of 16 mg/L (≈ 32.6 µM), an MIC (Staphylococcus aureus [2]) greater than 64 mg/L and an MIC (Staphylococcus aureus [3]) of 16 mg/L (≈ 32.6 µM). It also gave an MIC (Staphylococcus aureus [4]) of 8 mg/L (≈ 16.3 µM), an MIC (Staphylococcus [5]) of 8 mg/L (≈ 16.3 µM) and an MIC (Staphylococcus [6]) of 8 mg/L (≈ 16.3 µM). For the same compound, the MIC (Streptococcus pneumoniae) was 8 mg/L (≈ 16.3 µM), the MIC (Enterococcus [7]) was 8 mg/L (≈ 16.3 µM) and the MIC (Enterococcus [8]) was 8 mg/L (≈ 16.3 µM). It also gave an MIC (Haemophilus influenzae [9]) greater than 64 mg/L, an MIC (Haemophilus influenzae [10]) greater than 64 mg/L and an MIC (Haemophilus influenzae [11]) greater than 64 mg/L. It also gave an MIC (Haemophilus influenzae [12]) greater than 64 mg/L, an MIC (Haemophilus influenzae [13]) greater than 64 mg/L and an MIC (Moraxella catarrhalis) of 64 mg/L (≈ 130 µM). For the same compound, the MIC (Escherichia coli) was greater than 64 mg/L.

In the case of `CCCCC(=O)N1CCN(c2ccc(N3C[C@H](Cn4cc(C)nn4)OC3=O)cc2F)CC1`, the MIC (Staphylococcus aureus [1]) is reported as 2 mg/L (≈ 4.5 µM), the MIC (Staphylococcus aureus [2]) is reported as 32 mg/L and the MIC (Staphylococcus aureus [3]) is reported as 1 mg/L (≈ 2.25 µM). It also gave an MIC (Staphylococcus aureus [4]) of 1 mg/L (≈ 2.25 µM), an MIC (Staphylococcus [5]) of 1 mg/L (≈ 2.25 µM) and an MIC (Staphylococcus [6]) of 1 mg/L (≈ 2.25 µM). For the same compound, the MIC (Streptococcus pneumoniae) was 2 mg/L (≈ 4.5 µM), the MIC (Enterococcus [7]) was 1 mg/L (≈ 2.25 µM) and the MIC (Enterococcus [8]) was 1 mg/L (≈ 2.25 µM). For the same compound, the MIC (Haemophilus influenzae [9]) was 64 mg/L (≈ 144 µM), the MIC (Haemophilus influenzae [10]) was 64 mg/L (≈ 144 µM) and the MIC (Haemophilus influenzae [11]) was 64 mg/L (≈ 144 µM). It also gave an MIC (Haemophilus influenzae [12]) of 64 mg/L (≈ 144 µM), an MIC (Haemophilus influenzae [13]) of 64 mg/L (≈ 144 µM) and an MIC (Moraxella catarrhalis) of 16 mg/L (≈ 36 µM). The MIC (Escherichia coli) was greater than 64 mg/L.

`Cc1cn(C[C@H]2CN(c3ccc(N4CCN(C(=O)C(Cl)Cl)CC4)c(F)c3)C(=O)O2)nn1` showed an MIC (Staphylococcus aureus [1]) of 2 mg/L (≈ 4.24 µM), an MIC (Staphylococcus aureus [2]) of 8 mg/L and an MIC (Staphylococcus aureus [3]) of 1 mg/L (≈ 2.12 µM). It also gave an MIC (Staphylococcus aureus [4]) of 1 mg/L (≈ 2.12 µM), an MIC (Staphylococcus [5]) of 1 mg/L (≈ 2.12 µM) and an MIC (Staphylococcus [6]) of 0.5 mg/L (≈ 1.06 µM). The MIC (Streptococcus pneumoniae) was 1 mg/L (≈ 2.12 µM), the MIC (Enterococcus [7]) was 1 mg/L (≈ 2.12 µM) and the MIC (Enterococcus [8]) was 1 mg/L (≈ 2.12 µM). For the same compound, the MIC (Haemophilus influenzae [9]) was 64 mg/L (≈ 136 µM), the MIC (Haemophilus influenzae [10]) was 32 mg/L (≈ 67.9 µM) and the MIC (Haemophilus influenzae [11]) was 32 mg/L (≈ 67.9 µM). The MIC (Haemophilus influenzae [12]) was 64 mg/L (≈ 136 µM), the MIC (Haemophilus influenzae [13]) was 32 mg/L (≈ 67.9 µM) and the MIC (Moraxella catarrhalis) was 16 mg/L (≈ 33.9 µM). For the same compound, the MIC (Escherichia coli) was greater than 64 mg/L.

Work on `Cc1cn(C[C@H]2CN(c3ccc(N4CCOCC4)c(F)c3)C(=O)O2)nn1` yielded an MIC (Staphylococcus aureus [1]) of 2 mg/L (≈ 5.53 µM), an MIC (Staphylococcus aureus [2]) of 4 mg/L and an MIC (Staphylococcus aureus [3]) of 1 mg/L (≈ 2.77 µM). The MIC (Staphylococcus aureus [4]) was 0.5 mg/L (≈ 1.38 µM), the MIC (Staphylococcus [5]) was 1 mg/L (≈ 2.77 µM) and the MIC (Staphylococcus [6]) was 1 mg/L (≈ 2.77 µM). For the same compound, the MIC (Streptococcus pneumoniae) was 1 mg/L (≈ 2.77 µM), the MIC (Enterococcus [7]) was 1 mg/L (≈ 2.77 µM) and the MIC (Enterococcus [8]) was 1 mg/L (≈ 2.77 µM). The MIC (Haemophilus influenzae [9]) was 64 mg/L (≈ 177 µM), the MIC (Haemophilus influenzae [10]) was 64 mg/L (≈ 177 µM) and the MIC (Haemophilus influenzae [11]) was 64 mg/L (≈ 177 µM). For the same compound, the MIC (Haemophilus influenzae [12]) was 64 mg/L (≈ 177 µM), the MIC (Haemophilus influenzae [13]) was 64 mg/L (≈ 177 µM) and the MIC (Moraxella catarrhalis) was 8 mg/L (≈ 22.1 µM). The MIC (Escherichia coli) was greater than 64 mg/L.

Work on `CN[C@H](CC(C)C)C(=O)N[C@H]1C(=O)N[C@@H](CC(N)=O)C(=O)N[C@H]2C(=O)N[C@H]3C(=O)N[C@H](C(=O)N[C@H](C(=O)O)c4cc(O)cc(O)c4-c4cc3ccc4O)[C@H](O)c3ccc(c(Cl)c3)Oc3cc2cc(c3O[C@@H]2O[C@H](CO)[C@@H](O)[C@H](O)[C@H]2O[C@H]2C[C@](C)(N)[C@H](O)[C@H](C)O2)Oc2ccc(cc2Cl)[C@H]1O` [VANCOMYCIN] yielded an MIC (Staphylococcus [5]) of 1 mg/L (≈ 0.69 µM), an MIC (Staphylococcus [6]) of 1 mg/L (≈ 0.69 µM) and an MIC (Streptococcus pneumoniae) of 0.5 mg/L (≈ 0.345 µM). The MIC (Enterococcus [7]) was 0.25 mg/L (≈ 0.173 µM), the MIC (Enterococcus [8]) was greater than 64 mg/L and the MIC (Haemophilus influenzae [9]) was greater than 16 mg/L. It also gave an MIC (Haemophilus influenzae [10]) greater than 16 mg/L, an MIC (Haemophilus influenzae [11]) greater than 16 mg/L and an MIC (Haemophilus influenzae [12]) greater than 16 mg/L. For the same compound, the MIC (Haemophilus influenzae [13]) was greater than 16 mg/L, the MIC (Moraxella catarrhalis) was greater than 16 mg/L and the MIC (Escherichia coli) was greater than 64 mg/L.

In the case of `Cc1cn(C[C@H]2CN(c3ccc(N4CCN(C(=O)OC(C)(C)C)CC4)c(F)c3)C(=O)O2)nn1`, the MIC (Staphylococcus aureus [2]) is reported as 64 mg/L, the MIC (Staphylococcus aureus [3]) is reported as 2 mg/L (≈ 4.34 µM) and the MIC (Streptococcus pneumoniae) is reported as 8 mg/L (≈ 17.4 µM). For the same compound, the MIC (Haemophilus influenzae [9]) was greater than 64 mg/L, the MIC (Haemophilus influenzae [10]) was greater than 64 mg/L and the MIC (Haemophilus influenzae [11]) was greater than 64 mg/L. The MIC (Haemophilus influenzae [12]) was greater than 64 mg/L, the MIC (Haemophilus influenzae [13]) was greater than 64 mg/L and the MIC (Moraxella catarrhalis) was 64 mg/L (≈ 139 µM). For the same compound, the MIC (Escherichia coli) was greater than 64 mg/L.

`CC(=O)NC[C@H]1CN(c2ccc(N3CCOCC3)c(F)c2)C(=O)O1` [LINEZOLID] was tested, and the MIC (Staphylococcus aureus [3]) was 0.5 mg/L (≈ 1.48 µM), the MIC (Staphylococcus aureus [4]) was 0.5 mg/L (≈ 1.48 µM) and the MIC (Staphylococcus [5]) was 0.5 mg/L (≈ 1.48 µM). The MIC (Staphylococcus [6]) was 0.5 mg/L (≈ 1.48 µM), the MIC (Enterococcus [7]) was 0.5 mg/L (≈ 1.48 µM) and the MIC (Enterococcus [8]) was 0.5 mg/L (≈ 1.48 µM). For the same compound, the MIC (Haemophilus influenzae [9]) was 8 mg/L (≈ 23.7 µM), the MIC (Haemophilus influenzae [10]) was 8 mg/L (≈ 23.7 µM) and the MIC (Haemophilus influenzae [11]) was 16 mg/L (≈ 47.4 µM). It also gave an MIC (Haemophilus influenzae [12]) of 16 mg/L (≈ 47.4 µM), an MIC (Haemophilus influenzae [13]) of 8 mg/L (≈ 23.7 µM) and an MIC (Moraxella catarrhalis) of 8 mg/L (≈ 23.7 µM). For the same compound, the MIC (Escherichia coli) was greater than 64 mg/L.
